Results from patent US6472397B1, “Nitrogen-containing heterocyclic compounds having antiplatelet aggregation effect and medicinal use thereof” (Meiji Seika Kaisha, Ltd., priority 1998, dated 2002).

How the values were obtained:
[1] = test system: human PRP (platelet rich plasma); assay: Platelet aggregation inhibiting effect, ADP-induced, human PRP; type: cell-based; details: ADP final concentration 5 μM, preincubation 2 minutes, read-out: IC50 calculated from the aggregation rate
Description: Among the compounds represented by the general formula (I) according to the present invention, the platelet aggregation inhibiting effect of the above compound A was examined with human PRP (platelet rich plasma).
A 9 volume sample of blood was taken out through an injection syringe having 1 volume of 3.8% sodium citrate added thereto from the vein of normal human (male), centrifuged at 170×g for 10 minutes at room temperature, and the resulting supernatant was isolated as PRP. The residual blood from which PRP had been isolated was centrifuged at 2,700×g for 15 minutes, and the resulting supernatant was isolated as platelet poor plasma (PPP).
The platelet aggregation test was carried out with AGGRIGOMETER (PAM-8C) manufactured by MEBANICS. The substance to be tested is dissolved in 50% DMSO-physiological saline, 50% methanol-physiological saline, or a physiological saline. The preincubation time of the substance to be tested and PRP was set as 2 minutes. An aggregation driving agent ADP (CHRONO-PARREAGENTS384 ADP, CHRONO-LOG Corp.) was diluted with physiological saline so that the final concentration is 5 μM.
The platelet aggregation inhibiting activity was calculated from the following equation as the suppressive rate against the […] by ADP when no compound to be tested was added:
Platelet aggregation inhibiting activity (%)= [formula]

[2] = Oral administration test: bioavailability in rats; type: in vivo; details: result in words
Description: 1) Preparation of a Solution to be Administered
The compound was dissolved or suspended in either of the solvents in which the compound is preferably dispersed or dissolved including distilled water, CMC-Na, Tween 80, and HCO 60 to prepare the liquids for intravenous injection and oral administration. The liquids for intravenous injection and oral administration have a concentration of 0.3 mg/ml and 5 mg/ml, respectively. The concentrations of the compounds were determined by HPLC.
Rats having fasted for 16-20 hours were subjected to cannulation with a polyethylene tube (PE50) into femoral artery. […] The plasma samples were treated according to the method described below, and the activity substance was then measured by HPLC. […]
Among the observed values after administration, the observed values corresponding to the maximum plasma concentration (Cmax) and the time for reaching the maximum plasma concentration (Tmax) were confirmed. […] The area below the plasma concentration-time curve from 0 to infinity (AUCinfinite) was calculated by the trapezoidal method until the final observed value, and after the final observed value from the final observed value/kel as the sum of respective values. […]
Bioavailability (B.A. (%)) was calculated from the following equation: […]

| SMILES | IC50 [1] | absorption capacity via oral administration [2] |
| --- | --- | --- |
| O=C(O)COc1ccc(C(=O)CN2CCN(C3CCNCC3)CC2=O)cc1 [Compound A] | 42 nM | – |
| CCOC(=O)COc1ccc(C(=O)CNC(=O)c2cc3c(s2)CCN(C(=O)OC(C)OC(C)=O)C3)cc1OCC(=O)OCC (centres unmarked) [Compound B, Diethyl [[4-[[[[5-(1-Acetoxyethyl)oxycarbonyl-4,5,6,7-tetrahydrothieno[3,2-c]pyridin-2-yl]carbonyl]amino]-acetyl]-o-phenylene]dioxy]diacetate] | – | no high absorption capacity |
